Laboratory results reported in patent US12629355B2, “Drug inhibitor against migration and invasion of cancer cells and methods of treating against metastasis of cancer cells” (HOWARD UNIVERSITY, priority 2019, dated 2026).

Experiments:
Format in all cases: cell-based
[1] = target: T1, RACK1A Y248 phosphorylation (Arabidopsis thaliana, UniProt O24456); assay: Stress hormone (ABA) induced RACK1A Y248 phosphorylation in Arabidopsis seedlings, western blot (FIG. 1); conditions: 10 uM ABA, 12 hours
T1 construct: from tissue; host or cells: one-week old Arabidopsis seedlings (whole-seedling lysate)
T1 sequence (O24456 whole entry): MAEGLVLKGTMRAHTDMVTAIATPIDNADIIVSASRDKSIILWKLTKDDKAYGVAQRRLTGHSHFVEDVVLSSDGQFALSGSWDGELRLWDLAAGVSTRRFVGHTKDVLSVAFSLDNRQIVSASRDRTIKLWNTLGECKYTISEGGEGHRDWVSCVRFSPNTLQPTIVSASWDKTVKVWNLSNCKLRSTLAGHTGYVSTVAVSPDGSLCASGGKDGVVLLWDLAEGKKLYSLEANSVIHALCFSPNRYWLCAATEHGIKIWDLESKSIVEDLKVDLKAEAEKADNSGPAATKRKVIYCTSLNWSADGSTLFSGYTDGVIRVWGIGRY
Description: The results of lab experiment establish the compounds identified by in silico screen to prevent RACK1 Y248 phosphorylation can inhibit RACK1 Y248 phosphorylation and confirm their utility in their application in RACK1 mediated cellular pathways. Y248 phosphorylation has previously been identified as a key event needed for RACK1 mediated scaffolding activities by regulating protein-protein interactions in plants. The corresponding residue in human RAKI is also a key requirement for scaffolding activities needed at the receptor level during the invasion and migration of cancer cells. […] The knock-out plant did maintain both the RACK1B protein and the RACK1C protein, but the antibody was raised to detect the RACK1A Y248 phosphorylation only.
As to FIG. 1, since RACK1 is a regulator of plant stress hormone Abscisic acid (ABA) (Guo et al., 2009), one-week old Arabidopsis seedlings were treated with 10 uM of ABA in the presence/absence of the inhibitor compounds for 12 hours in a growth chamber (overnight) at 22 C mostly in the night dark. Lysates isolated in buffer (Cell Signaling, MA) supplemented with plant protease inhibitor (Sigma-Aldrich), Protein Tyrosine phosphatase inhibitors (Santa Cruz Biotechnology, TX), and N-Ethylamaleimide (Sigma-Aldrich) at 25 mM to inhibit de-sumoylation. […]

[2] = tested on: U251 cells; assay: Transwell invasion assay (FIG. 10); conditions: serum free media with TGF in upper chamber, about 14 hours
Experimental: A transwell assay is conducted as a means for testing for invasion. A transwell invasion assay can be used to test the invasive potential of cells in response migration inducers or inhibitors. This assay is also known as modified Boyden chamber assay. During this assay, cells are placed on the upper layer of a cell culture insert with permeable membrane and a solution containing the test agent is placed below the cell permeable membrane. Following an incubation period (3-18 hours) at 37° C. in a humidified chamber, the cells that have stuck during the migration towards the lower chamber through the membrane are stained and counted. […] Collectively, these findings (as shown in FIG. 9 and FIG. 10) indicate that administering a representative compound (SD 29-14) played a significant functional role in the regulation of U251 glioma cell migration and invasion.
In measuring cell invasion, 12-well transwell chambers (Corning Inc., Kennebunk, ME) were used with 6.5 mm inserts and 8.0 μm membrane pore size. […] Invasive cells on the bottom surface were fixed with 4% paraformaldehyde for 15 min and stained with 0.2% crystal violet for 15 minutes and the cells were counted and photographed under a light microscope.

[3] = tested on: FAK; assay: Localization of FAK, immunofluorescence (FIG. 13); conditions: versus DMSO+TGF (5 ng/ml) control
Experimental: FIG. 13 presents in photomicrographs a comparison between an illustrative cancer in which the treatment involved using DMSO+TGF (5 ng/ml) as a control and the illustrative cancer cell in which the in vitro treatment involved using a compound according to a formulae (1), (2) or (3) herein+TGF (5 ng/ml). The block of four photomicrographs on the left is for the control. […] Inability to co-localize would inhibit the downstream modifications of FAK reported as needed for migration.
As to FIGS. 12 and 13, cells were grown to almost 80% confluency and then serum starved for 24 hours. Then treated with the representative compound SD 29-14 for additional 24 h. No TGFbeta1 was used in this assay. After 24 h, cells were prepared for the immunofluorescence imaging essentially with the same procedure as described for FIG. 9. The antibody for the FAK was purchased from GeneTex (Irvine, CA). The secondary was rabbit TRITC. The primary RACK1 antibody coupled with a FITC reporter was purchased from Santa Cruz Biotechnology (Dallas, TX).

[4] = tested on: N-cadherin; assay: Protein expression of EMT marker N-cadherin, western blot (FIG. 8); conditions: U251 cells, serum starved 24 h, with or without TGFb, 6 days
Description: The inhibition of EMT marker by a representative compound (SD 29-14) in comparison to other compounds (SD 29, and SD 29-12). A large family of cadherin molecules are expressed in a cancer cell-type specific manner and among them, N-cadherin is reported to be expressed in mesenchymal cells (e.g., Li and Feng, 2011; Alizadeh et al., 2014). […] Up-regulation of N-cadherin reduces cancer cell adhesion ability to epithelial cells, increases adhesion to stromal cells, and leads to subsequent invasion of tumor cells into stroma (Guan 2015). N-cadherin promotes cell migration and metastasis regardless of the expression and function of E-cadherin (Hazan et al., 2000). […] The N-cadherin expression correlates with RACK1 expression (lower panel). The coomassie stained gel is used as the loading control.
As to FIG. 8, U251 cells starved (no serum) for 24 h and then treated with the indicated compounds with or without the TGFb and again replenished with the compounds and TGFb after 3 days. After allowing to grow for 6 days, the cells were washed three times in PBS. […] After overnight incubation, the membrane was washed 3× in PBST and then incubated with a horseradish peroxidase-coupled secondary antibody for an hour at room temperature and the bands were detected with enhanced chemiluminescence (Pierce, Rockford, IL, USA), according to standard methods.

RACK1A Y248 phosphorylation with stress hormone present [1]: prevents Y248 phosphorylation
Structure (SMILES): Nn1c(S)nnc1-c1cc(Cl)cc(Cl)c1 [SD 29-14]
cells on the membrane (invasion) [2]: hardly any cells were observed on the membrane | localization of FAK [3]: blocks localization of FAK | N-cadherin expression [4]: down-regulated N-cadherin expression
